{"source": "patent US20120301468A1", "about": "“ANTI-MN ANTIBODIES AND METHODS OF USING SAME” (BAYER HEALTHCARE LLC, priority 2005, published 2012)", "key": {"[1]": {"system": "HT-29 human CRC xenograft", "assay": "HT-29 subcutaneous xenograft model", "assay_type": "in vivo, athymic NCr (nu/nu) mice", "settings": "for TGI: end of dosing", "method": "When tumors reached an average size of ˜120 mg (5 days), treatment was initiated. […] In addition, MMAE was assessed as a free drug at a dose of 0.1, 0.2 and 1 mg/kg. The 0.1 and 0.2 mg/Kg doses of MMAE represent equivalent amounts of this drug to those present on 5 and 10 mg/Kg 3ee9/MMAE respectively.\nAnti-tumor effect of 3ee9/MMAE was also assessed in varying schedules, i.e., once a week dosing for total of two doses (Q7Dx2, FIG. 20) and a single dose at the time of staging (Q1Dx1, FIG. 21). In both schedules, 3ee9/MMAE was dosed at 0.625, 1.25, 2.5, 5 and 10 mg/kg."}, "[2]": {"system": "MN-expressing cells (PC3 mm2)", "assay": "Spindle formation / tubulin staining, Pc3 mm2", "assay_type": "cell-based, human", "settings": "tubulin stained with fluorescence labeled antibody", "excerpt": "(§1) The cytotoxic drug MMAE delivered by 3ee9/MMAE is a tubulin inhibitor that prevents spindle formation during cell mitosis resulting in G2/M arrest. The tubulin is stained with florescence labeled antibody. […] These studies confirmed that the antibody drug conjugate 3ee9/MMAE kills cell through targeted tubulin disruption."}, "[3]": {"system": "MN non-expressing cells (H460)", "assay": "Spindle formation / tubulin staining, H460", "assay_type": "cell-based", "settings": "tubulin stained with fluorescence labeled antibody", "excerpt": "as §1"}, "In vivo distribution": {"assay": "In vivo distribution", "design": "species or system mice", "settings": "Table 4 profile", "excerpt": "The Maestro™ in-vivo imaging system (CRI, Woburn, Mass.) with multi-spectral acquisition and analysis is designed to eliminate auto-fluorescence background. Mabs 3ee9 of BAY 79-4620, M75 (mouse monoclonal recognizing MN) and control human IgG, were conjugated with Alexa Fluor 750 (Invitrogen Cat# A20011) according to manufacturer's instructions. The ratio of Protein/AF750 (mol/mol) was 1/5.9 for 3ee9, 8.9 for human IgG, and 6.0 for M75.\nTwelve days before the injection of each fluorescence-labeled antibody, Harlan Balb/C nudes were implanted with MIAPaCa-2 (low MN-expressing; 7.5×10^6 cells in 50% Matrigel) subcutaneously in the right flank, and huMN-MIAPaCa2 (MN transfected stable cell line; 5×10^6 cells in 50% Matrigel) subcutaneously in the left flank. 4 μg of conjugated antibody was injected on Day 0 (12 days post implant) to each animal. Imaging was done on Day 4, Day 5 and Day 10. Data were collected using animals that were anaesthetized (100 mg/kg ketamine/10 mg/kg xylazine, i.p.), and placed inside the imaging system. Multi-spectral image cubes (series of images) were acquired with images spaced every 10 nm throughout the spectral range of 680 to 950 nm, which covered the Near Infrared (NIR) range.\nEach image was exposed for 5 seconds. False-colored images were synthesized from the spectral cube using Maestro software and scaled to visible brightness using ImagePro Plus 6.0. […]"}, "MN": {"target": "MN (Homo sapiens, UniProt Q16790)", "assay": "Immunoprecipitation of biotinylated cell surface proteins", "assay_type": "binding", "design": "incubated with cell lysates of MN+ (Pc3 mm2) and MN− (DLD-1) cell lines that had been selectively labeled with biotin; endogenous in cells; host or cells: PC-3 mm2 (MN+); DLD-1 as the MN- control", "settings": "Table 4 profile", "method": "To further explore specificity, various candidate antibodies including the antibody portion of 3ee9/MMAE (3ee9) and the reference antibody G250 were incubated with cell lysates of MN+ (Pc3 mm2) and MN− (DLD-1) cell lines that had been selectively labeled with biotin. Complexes between the antibodies and cellular proteins were immuno-precipitated and the co-precipitated antigens visualized using immunoblots developed with enzyme-linked streptavidin."}, "MN-negative cells (DLD1)": {"system": "MN-negative cells (DLD1)", "assay": "Antibody internalization (Cellomics), DLD1", "assay_type": "cell-based"}, "[4]": {"system": "high MN-expressing huMN-MIAPaCa2 xenograft", "assay": "huMN-MIAPaCa2 xenograft model", "assay_type": "in vivo, mice", "settings": "for TGI: end of dosing", "method": "To better understand the relationship between MN expression and antitumor efficacy, xenograft efficacy studies were conducted using a low MN-expressing pancreatic model, MIAPaCa2 and high MN-expressing huMN-MIAPaCa2 model. This latter line was derived by engineering the MIAPaCa2 line to stably express MN. […] 3ee9/MMAE dosed at 10 mg/kg only produced 50% TGI."}, "[5]": {"system": "mitochondria-associated CA5", "assay": "Binding to CA5"}, "[6]": {"system": "13 other carbonic anhydrases", "assay": "Binding to other carbonic anhydrases"}}}
{"substance": "3ee9/MMAE: human anti-MN IgG1 antibody 3ee9 conjugated to Monomethylauristatin E (MMAE)", "values": [{"measurement": "TGI", "setting": "[1]; HT-29, 0.625 mg/kg Q4Dx3", "result": 54, "unit": "%"}, {"measurement": "% Inhibition (1-T/D)*100 (Day 18)", "setting": "[1]; HT-29, 0.625 mg/kg, Q1D × 1", "result": 42, "unit": "%"}, {"measurement": "Percent Regressions", "setting": "[1]; HT-29, 0.625 mg/kg, Q1D × 1", "result": 0, "unit": "%"}, {"measurement": "% Inhibition (1-T/D)*100 (Day 18)", "setting": "[1]; HT-29, 0.625 mg/kg, Q4D × 3", "result": 54, "unit": "%"}, {"measurement": "Percent Regressions", "setting": "[1]; HT-29, 0.625 mg/kg, Q4D × 3", "result": 0, "unit": "%"}, {"measurement": "% Inhibition (1-T/D)*100 (Day 18)", "setting": "[1]; HT-29, 0.625 mg/kg, Q7D × 2", "result": 48, "unit": "%"}, {"measurement": "Percent Regressions", "setting": "[1]; HT-29, 0.625 mg/kg, Q7D × 2", "result": 0, "unit": "%"}, {"measurement": "animals showing regressions", "setting": "[1]; HT-29, 1.25 mg/kg Q4Dx3", "result": 20, "unit": "%"}, {"measurement": "TGI", "setting": "[1]; HT-29, 1.25 mg/kg Q4Dx3", "result": 72, "unit": "%"}, {"measurement": "% Inhibition (1-T/D)*100 (Day 18)", "setting": "[1]; HT-29, 1.25 mg/kg, Q1D × 1", "result": 48, "unit": "%"}, {"measurement": "Percent Regressions", "setting": "[1]; HT-29, 1.25 mg/kg, Q1D × 1", "result": 0, "unit": "%"}, {"measurement": "% Inhibition (1-T/D)*100 (Day 18)", "setting": "[1]; HT-29, 1.25 mg/kg, Q4D × 3", "result": 72, "unit": "%"}, {"measurement": "Percent Regressions", "setting": "[1]; HT-29, 1.25 mg/kg, Q4D × 3", "result": 2, "unit": "%"}, {"measurement": "% Inhibition (1-T/D)*100 (Day 18)", "setting": "[1]; HT-29, 1.25 mg/kg, Q7D × 2", "result": 71, "unit": "%"}, {"measurement": "Percent Regressions", "setting": "[1]; HT-29, 1.25 mg/kg, Q7D × 2", "result": 0, "unit": "%"}, {"measurement": "regressions", "setting": "[1]; HT-29, 2.5 mg/kg Q4Dx3", "result": 90, "unit": "%"}, {"measurement": "TGI", "setting": "[1]; HT-29, 2.5 mg/kg Q4Dx3", "result": 97, "unit": "%"}, {"measurement": "% Inhibition (1-T/D)*100 (Day 18)", "setting": "[1]; HT-29, 2.5 mg/kg, Q1D × 1", "result": 93, "unit": "%"}, {"measurement": "Percent Regressions", "setting": "[1]; HT-29, 2.5 mg/kg, Q1D × 1", "result": 5, "unit": "%"}, {"measurement": "% Inhibition (1-T/D)*100 (Day 18)", "setting": "[1]; HT-29, 2.5 mg/kg, Q4D × 3", "result": 97, "unit": "%"}, {"measurement": "Percent Regressions", "setting": "[1]; HT-29, 2.5 mg/kg, Q4D × 3", "result": 9, "unit": "%"}, {"measurement": "% Inhibition (1-T/D)*100 (Day 18)", "setting": "[1]; HT-29, 2.5 mg/kg, Q7D × 2", "result": 92, "unit": "%"}, {"measurement": "TGI", "setting": "[1]; HT-29, 5 mg/kg Q4Dx3", "result": 100, "unit": "%"}, {"measurement": "% Inhibition (1-T/D)*100 (Day 18)", "setting": "[1]; HT-29, 5 mg/kg, Q1D × 1", "result": 98, "unit": "%"}, {"measurement": "Percent Regressions", "setting": "[1]; HT-29, 5 mg/kg, Q1D × 1", "result": 8, "unit": "%"}, {"measurement": "% Inhibition (1-T/D)*100 (Day 18)", "setting": "[1]; HT-29, 5 mg/kg, Q4D × 3", "result": 100, "unit": "%"}, {"measurement": "Percent Regressions", "setting": "[1]; HT-29, 5 mg/kg, Q4D × 3", "result": 10, "unit": "%"}, {"measurement": "% Inhibition (1-T/D)*100 (Day 18)", "setting": "[1]; HT-29, 5 mg/kg, Q7D × 2", "result": 96, "unit": "%"}, {"measurement": "Percent Regressions", "setting": "[1]; HT-29, 5 mg/kg, Q7D × 2", "result": 7, "unit": "%"}, {"measurement": "TGI", "setting": "[1]; HT-29, 10 mg/kg Q4Dx3", "result": 100, "unit": "%"}, {"measurement": "% Inhibition (1-T/D)*100 (Day 18)", "setting": "[1]; HT-29, 10 mg/kg, Q1D × 1", "result": 100, "unit": "%"}, {"measurement": "Percent Regressions", "setting": "[1]; HT-29, 10 mg/kg, Q1D × 1", "result": 10, "unit": "%"}, {"measurement": "% Inhibition (1-T/D)*100 (Day 18)", "setting": "[1]; HT-29, 10 mg/kg, Q4D × 3", "result": 100, "unit": "%"}, {"measurement": "Percent Regressions", "setting": "[1]; HT-29, 10 mg/kg, Q4D × 3", "result": 10, "unit": "%"}, {"measurement": "% Inhibition (1-T/D)*100 (Day 18)", "setting": "[1]; HT-29, 10 mg/kg, Q7D × 2", "result": 100, "unit": "%"}, {"measurement": "Percent Regressions", "setting": "[1]; HT-29, 10 mg/kg, Q7D × 2", "result": 10, "unit": "%"}, {"measurement": "tolerability", "setting": "[1]; HT-29, 0.625 to 10 mg/kg i.v. Q4Dx3", "result": "well tolerated at all doses examined"}, {"measurement": "responses", "setting": "[1]; HT-29, 5 and 10 mg/kg Q4Dx3", "result": 100, "unit": "%"}, {"measurement": "anti-tumor effect in varying schedules", "setting": "[1]; HT-29, Q7Dx2 and Q1Dx1, 0.625 to 10 mg/kg", "result": "highly effective in inhibiting the growth"}, {"measurement": "anti-tumor effects", "setting": "[1]; HT-29 human colo-rectal cancer xenograft model", "result": "anti-tumor effects were seen"}, {"measurement": "effect on spindle formation", "setting": "[2]", "result": "fragmented fibers resulting from tubulin binding with MMAE and prevention of normal spindle formation"}, {"measurement": "effect on spindle formation", "setting": "[3]", "result": "No activity"}, {"measurement": "In vivo distribution", "setting": "In vivo distribution", "result": "normal"}, {"measurement": "Immunoprecipitation", "setting": "MN", "result": "specific"}, {"measurement": "internalization", "setting": "MN-negative cells (DLD1)", "result": "not by MN-negative cells (DLD1)"}, {"measurement": "TGI", "setting": "[4]; 2.5 mg/kg", "result": 63, "unit": "%"}, {"measurement": "TGI", "setting": "[4]; 5 mg/kg", "result": 82, "unit": "%"}, {"measurement": "responses", "setting": "[4]; 10 mg/kg", "result": 100, "unit": "%"}, {"measurement": "TGI", "setting": "[4]; 10 mg/kg", "result": 94, "unit": "%"}, {"measurement": "binding to CA5", "setting": "[5]", "result": "Binding to mitochondria-associated CA5 was observed"}, {"measurement": "binding to other carbonic anhydrases", "setting": "[6]", "result": "no detectable binding"}]}
